What was measured:
Experiment in all cases: relative viability vs DMSO control (72 h) (fraction); higher = more viable cells
SK-ES-1 = test system: SK-ES-1
Procedure, shortened: (§1)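 Sarcoma cell lines in 384-well plates, seeded to reach 80–90% confluence, were given compound after 24 h and kept 72 h at 37 °C, 5% CO2, with 0.1% DMSO vehicle and a 5 µM positive control. Relative viability came from ATPLite as percent growth, averaged over up to triplicate wells. On the rescaled values, 1 equals full and 0 equals none.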

SW872 = test system: SW872
Procedure, shortened: as §1

SW1353 = test system: SW1353
Procedure, shortened: as §1

SK-LMS-1 = test system: SK-LMS-1
Procedure, shortened: as §1

A204 = test system: A204
Procedure, shortened: as §1

SW982 = test system: SW982
Procedure, shortened: as §1

HS729 = test system: HS729
Procedure, shortened: as §1

RD = test system: RD
Procedure, shortened: as §1

KHOS-240S = test system: KHOS-240S
Procedure, shortened: as §1

VA-ES-BJ = test system: VA-ES-BJ
Procedure, shortened: as §1

MES-SA = test system: MES-SA
Procedure, shortened: as §1

G401 = test system: G401
Procedure, shortened: as §1

CCN1C(=O)N(c2c(F)c(OC)cc(OC)c2F)Cc2cnc3[nH]c(CN4CCOCC4)cc3c21 [Pemigatinib]
Settings	relative viability
A204, 0.00017 µM	1.04
A204, 0.00051 µM	1.02
A204, 0.00152 µM	0.98
A204, 0.00457 µM	0.991
A204, 0.01372 µM	0.843
A204, 0.04115 µM	0.709
A204, 0.1235 µM	0.599
A204, 0.3704 µM	0.565
A204, 1.111 µM	0.516
A204, 3.333 µM	0.379
A204, 10 µM	0.333
G401, 0.00017 µM	0.978
G401, 0.00051 µM	0.982
G401, 0.00152 µM	0.93
G401, 0.00457 µM	0.8789
G401, 0.01372 µM	0.746
G401, 0.04115 µM	0.7
G401, 0.1235 µM	0.614
G401, 0.3704 µM	0.585
G401, 1.111 µM	0.518
G401, 3.333 µM	0.379
G401, 10 µM	0.349
HS729, 0.00017 µM	1
HS729, 0.00051 µM	0.95
HS729, 0.00152 µM	0.912
HS729, 0.00457 µM	0.92
HS729, 0.01372 µM	0.843
HS729, 0.04115 µM	0.751
HS729, 0.1235 µM	0.644
HS729, 0.3704 µM	0.622
HS729, 1.111 µM	0.544
HS729, 3.333 µM	0.484
HS729, 10 µM	0.444
KHOS-240S, 0.00017 µM	1.03
KHOS-240S, 0.00051 µM	1.03
KHOS-240S, 0.00152 µM	0.999
KHOS-240S, 0.00457 µM	1
KHOS-240S, 0.01372 µM	0.943
KHOS-240S, 0.04115 µM	0.917
KHOS-240S, 0.1235 µM	0.884
KHOS-240S, 0.3704 µM	0.862
KHOS-240S, 1.111 µM	0.841
KHOS-240S, 3.333 µM	0.789
KHOS-240S, 10 µM	0.687
MES-SA, 0.00017 µM	0.912
MES-SA, 0.00051 µM	0.9387
MES-SA, 0.00152 µM	0.937
MES-SA, 0.00457 µM	0.914
MES-SA, 0.01372 µM	0.91
MES-SA, 0.04115 µM	0.826
MES-SA, 0.1235 µM	0.732
MES-SA, 0.3704 µM	0.7701
MES-SA, 1.111 µM	0.641
MES-SA, 3.333 µM	0.397
MES-SA, 10 µM	0.376
RD, 0.00017 µM	1.02
RD, 0.00051 µM	1.07
RD, 0.00152 µM	1.06
RD, 0.00457 µM	1.06
RD, 0.01372 µM	1.04
RD, 0.04115 µM	1.04
RD, 0.1235 µM	1.03
RD, 0.3704 µM	1.04
RD, 1.111 µM	0.946
RD, 3.333 µM	0.7043
RD, 10 µM	0.665
SK-ES-1, 0.00017 µM	0.969
SK-ES-1, 0.00051 µM	0.963
SK-ES-1, 0.00152 µM	0.989
SK-ES-1, 0.00457 µM	0.965
SK-ES-1, 0.01372 µM	0.935
SK-ES-1, 0.04115 µM	0.972
SK-ES-1, 0.1235 µM	0.89
SK-ES-1, 0.3704 µM	0.816
SK-ES-1, 1.111 µM	0.599
SK-ES-1, 3.333 µM	0.354
SK-ES-1, 10 µM	0.2767
SK-LMS-1, 0.00017 µM	1.05
SK-LMS-1, 0.00051 µM	1.09
SK-LMS-1, 0.00152 µM	1.105
SK-LMS-1, 0.00457 µM	1.08
SK-LMS-1, 0.01372 µM	1.09
SK-LMS-1, 0.04115 µM	1.07
SK-LMS-1, 0.1235 µM	1.07
SK-LMS-1, 0.3704 µM	1.07
SK-LMS-1, 1.111 µM	0.9589
SK-LMS-1, 3.333 µM	0.667
SK-LMS-1, 10 µM	0.528
SW872, 0.00017 µM	1.02
SW872, 0.00051 µM	1.01
SW872, 0.00152 µM	1
SW872, 0.00457 µM	1.02
SW872, 0.01372 µM	0.999
SW872, 0.04115 µM	0.999
SW872, 0.1235 µM	0.964
SW872, 0.3704 µM	0.975
SW872, 1.111 µM	0.911
SW872, 3.333 µM	0.739
SW872, 10 µM	0.713
SW982, 0.00017 µM	0.989
SW982, 0.00051 µM	0.978
SW982, 0.00152 µM	0.98
SW982, 0.00457 µM	1
SW982, 0.01372 µM	0.985
SW982, 0.04115 µM	0.979
SW982, 0.1235 µM	0.992
SW982, 0.3704 µM	0.968
SW982, 1.111 µM	0.715
SW982, 3.333 µM	0.511
SW982, 10 µM	0.438
SW1353, 0.00017 µM	1.06
SW1353, 0.00051 µM	1.02
SW1353, 0.00152 µM	1.02
SW1353, 0.00457 µM	0.964
SW1353, 0.01372 µM	0.886
SW1353, 0.04115 µM	0.879
SW1353, 0.1235 µM	0.863
SW1353, 0.3704 µM	0.843
SW1353, 1.111 µM	0.836
SW1353, 3.333 µM	0.716
SW1353, 10 µM	0.539
VA-ES-BJ, 0.00017 µM	1.02
VA-ES-BJ, 0.00051 µM	1.03
VA-ES-BJ, 0.00152 µM	1.023
VA-ES-BJ, 0.00457 µM	1.011
VA-ES-BJ, 0.01372 µM	1.04
VA-ES-BJ, 0.04115 µM	1.05
VA-ES-BJ, 0.1235 µM	1.036
VA-ES-BJ, 0.3704 µM	1.04
VA-ES-BJ, 1.111 µM	0.956
VA-ES-BJ, 3.333 µM	0.775
VA-ES-BJ, 10 µM	0.702

COc1cc(OC)c(/C=C/S(=O)(=O)Cc2ccc(OC)c(NCC(=O)O)c2)c(OC)c1 [Rigosertib]
Settings	relative viability
A204, 0.00017 µM	1.08
A204, 0.00051 µM	1.06
A204, 0.00152 µM	1.08
A204, 0.00457 µM	1.0898
A204, 0.01372 µM	1.09
A204, 0.04115 µM	1.07
A204, 0.1235 µM	1.01
A204, 0.3704 µM	0.672
A204, 1.111 µM	0.398
A204, 3.333 µM	0.319
A204, 10 µM	0.248
G401, 0.00017 µM	1.01
G401, 0.00051 µM	1
G401, 0.00152 µM	0.993
G401, 0.00457 µM	1.02
G401, 0.01372 µM	1.04
G401, 0.04115 µM	1.01
G401, 0.1235 µM	0.983
G401, 0.3704 µM	0.919
G401, 1.111 µM	0.534
G401, 3.333 µM	0.424
G401, 10 µM	0.361
HS729, 0.00017 µM	0.973
HS729, 0.00051 µM	0.989
HS729, 0.00152 µM	0.934
HS729, 0.00457 µM	0.938
HS729, 0.01372 µM	1.02
HS729, 0.04115 µM	0.966
HS729, 0.1235 µM	0.928
HS729, 0.3704 µM	0.85
HS729, 1.111 µM	0.625
HS729, 3.333 µM	0.579
HS729, 10 µM	0.517
KHOS-240S, 0.00017 µM	1.06
KHOS-240S, 0.00051 µM	1.07
KHOS-240S, 0.00152 µM	1.051
KHOS-240S, 0.00457 µM	1.05
KHOS-240S, 0.01372 µM	1.03
KHOS-240S, 0.04115 µM	0.981
KHOS-240S, 0.1235 µM	0.385
KHOS-240S, 0.3704 µM	0.228
KHOS-240S, 1.111 µM	0.168
KHOS-240S, 3.333 µM	0.15
KHOS-240S, 10 µM	0.135
MES-SA, 0.00017 µM	0.901
MES-SA, 0.00051 µM	0.906
MES-SA, 0.00152 µM	0.911
MES-SA, 0.00457 µM	0.91
MES-SA, 0.01372 µM	0.918
MES-SA, 0.04115 µM	0.932
MES-SA, 0.1235 µM	0.607
MES-SA, 0.3704 µM	0.271
MES-SA, 1.111 µM	0.172
MES-SA, 3.333 µM	0.13
MES-SA, 10 µM	0.13
RD, 0.00017 µM	1.08
RD, 0.00051 µM	1.09
RD, 0.00152 µM	1.08
RD, 0.00457 µM	1.094
RD, 0.01372 µM	1.05
RD, 0.04115 µM	1.04
RD, 0.1235 µM	0.825
RD, 0.3704 µM	0.372
RD, 1.111 µM	0.215
RD, 3.333 µM	0.23
RD, 10 µM	0.256
SK-ES-1, 0.00017 µM	1
SK-ES-1, 0.00051 µM	1.02
SK-ES-1, 0.00152 µM	0.98
SK-ES-1, 0.00457 µM	1.08
SK-ES-1, 0.01372 µM	1.03
SK-ES-1, 0.04115 µM	0.987
SK-ES-1, 0.1235 µM	0.252
SK-ES-1, 0.3704 µM	0.038
SK-ES-1, 1.111 µM	0.0202
SK-ES-1, 3.333 µM	0.0195
SK-ES-1, 10 µM	0.0239
SK-LMS-1, 0.00017 µM	1.08
SK-LMS-1, 0.00051 µM	1.05
SK-LMS-1, 0.00152 µM	1.05
SK-LMS-1, 0.00457 µM	1.03
SK-LMS-1, 0.01372 µM	1.03
SK-LMS-1, 0.04115 µM	0.912
SK-LMS-1, 0.1235 µM	0.659
SK-LMS-1, 0.3704 µM	0.492
SK-LMS-1, 1.111 µM	0.359
SK-LMS-1, 3.333 µM	0.355
SK-LMS-1, 10 µM	0.325
SW872, 0.00017 µM	1.04
SW872, 0.00051 µM	1.05
SW872, 0.00152 µM	1.05
SW872, 0.00457 µM	1.06
SW872, 0.01372 µM	1.045
SW872, 0.04115 µM	1.06
SW872, 0.1235 µM	1.019
SW872, 0.3704 µM	0.927
SW872, 1.111 µM	0.515
SW872, 3.333 µM	0.479
SW872, 10 µM	0.477
SW982, 0.00017 µM	1.06
SW982, 0.00051 µM	1.04
SW982, 0.00152 µM	1.05
SW982, 0.00457 µM	1.07
SW982, 0.01372 µM	1.07
SW982, 0.04115 µM	1.06
SW982, 0.1235 µM	0.92
SW982, 0.3704 µM	0.52
SW982, 1.111 µM	0.26
SW982, 3.333 µM	0.256
SW982, 10 µM	0.273
SW1353, 0.00017 µM	1
SW1353, 0.00051 µM	1.01
SW1353, 0.00152 µM	0.994
SW1353, 0.00457 µM	0.989
SW1353, 0.01372 µM	0.992
SW1353, 0.04115 µM	0.968
SW1353, 0.1235 µM	0.932
SW1353, 0.3704 µM	0.702
SW1353, 1.111 µM	0.426
SW1353, 3.333 µM	0.428
SW1353, 10 µM	0.429
VA-ES-BJ, 0.00017 µM	1.05
VA-ES-BJ, 0.00051 µM	1.03
VA-ES-BJ, 0.00152 µM	1.02
VA-ES-BJ, 0.00457 µM	1.03
VA-ES-BJ, 0.01372 µM	1.05
VA-ES-BJ, 0.04115 µM	0.961
VA-ES-BJ, 0.1235 µM	0.772
VA-ES-BJ, 0.3704 µM	0.53
VA-ES-BJ, 1.111 µM	0.43
VA-ES-BJ, 3.333 µM	0.403
VA-ES-BJ, 10 µM	0.2992

— the supplement of paper PMC10883282
